{
  "source": "patent US4180506A",
  "about": "“6β-Bromo penicillanic acid” (priority 1978, dated 1979)",
  "key": {"Vibrio percolans MB-1272": {"test_system": "Vibrio percolans MB-1272", "assay": "Bilayer agar diffusion test, potentiation of Pen G in the presence of penicillinase", "format": "cell-based"}, "[1]": {"test_system": "two penicillinase-producing animal-pathogenic strains of Staphylococcus aureus", "format": "cell-based, Staphylococcus aureus MB-3648 and MB-3649"}, "S. aureus MB-3649": {"test_system": "S. aureus MB-3649", "assay": "Disc agar diffusion test, potentiation of Pen G and ampicillin", "format": "cell-based, Staphylococcus aureus MB-3649"}, "S. aureus MB-3648": {"test_system": "S. aureus MB-3648", "assay": "Disc agar diffusion test, potentiation of Pen G and ampicillin", "format": "cell-based, Staphylococcus aureus MB-3648"}, "[2]": {"settings": "subinhibitory concentration (1/4 MZC), extrapolated on standard/regression curve"}, "[3]": {"settings": "Ampicillin 15.7 μg/ml plus 4 μg/ml clavulanic acid"}, "[4]": {"settings": "Ampicillin 15.7 μg/ml plus 32 μg/ml 6 BPA"}, "[5]": {"settings": "Ampicillin 31.3 μg/ml plus 4 μg/ml clavulanic acid"}, "[6]": {"settings": "Ampicillin 31.3 μg/ml plus 32 μg/ml 6 BPA"}, "[7]": {"settings": "Ampicillin 62.5 μg/ml plus 4 μg/ml clavulanic acid"}, "[8]": {"settings": "Ampicillin 62.5 μg/ml plus 32 μg/ml 6 BPA"}, "[9]": {"settings": "Ampicillin 125 μg/ml plus 4 μg/ml clavulanic acid"}, "[10]": {"settings": "Ampicillin 125 μg/ml plus 32 μg/ml 6 BPA"}, "[11]": {"settings": "Ampicillin 250 μg/ml plus 4 μg/ml clavulanic acid"}, "[12]": {"settings": "Ampicillin 250 μg/ml plus 32 μg/ml 6 BPA"}},
  "note": "Read-outs that look alike come from different tables or passages of the source.",
  "data": [
    {"smiles": "O=C(O)[C@H]1/C(=C/CO)O[C@@H]2CC(=O)N21", "note": "[Clavulanic Acid]", "values": [
      {"measurement": "Zone of inhibition, Antibiotic + Penase + Pen G", "setting": "Vibrio percolans MB-1272; 1 μg/ml, Penase 10^4 units/ml, Pen G 5 μg/ml", "result": 0, "unit": "mm"},
      {"measurement": "Zone of inhibition, Antibiotic + Penase + Pen G", "setting": "Vibrio percolans MB-1272; 2 μg/ml, Penase 10^4 units/ml, Pen G 5 μg/ml", "result": 0, "unit": "mm"},
      {"measurement": "Zone of inhibition, Antibiotic + Penase + Pen G", "setting": "Vibrio percolans MB-1272; 4 μg/ml, Penase 10^4 units/ml, Pen G 5 μg/ml", "result": 0, "unit": "mm"},
      {"measurement": "Zone of inhibition, Antibiotic + Penase + Pen G", "setting": "Vibrio percolans MB-1272; 8 μg/ml, Penase 10^4 units/ml, Pen G 5 μg/ml", "result": 0, "unit": "mm"},
      {"measurement": "Zone of inhibition, Antibiotic + Penase + Pen G", "setting": "Vibrio percolans MB-1272; 16 μg/ml, Penase 10^4 units/ml, Pen G 5 μg/ml", "result": 10, "unit": "mm"},
      {"measurement": "Zone of inhibition, Antibiotic + Penase + Pen G", "setting": "Vibrio percolans MB-1272; 31 μg/ml, Penase 10^4 units/ml, Pen G 5 μg/ml", "result": 21, "unit": "mm"},
      {"measurement": "zone of inhibition at 1 µg/mL", "setting": "Vibrio percolans MB-1272; Comamonas terrigena, MB1272, 1 μg/ml, Penase 10^4 units/ml, read-out: Zone of inhibition, Antibiotic + Penase", "result": 0, "unit": "mm"},
      {"measurement": "zone of inhibition at 1 µg/mL", "setting": "Vibrio percolans MB-1272; Comamonas terrigena, MB1272, 1 μg/ml, read-out: Zone of inhibition, Antibiotic Alone", "result": 0, "unit": "mm"},
      {"measurement": "zone of inhibition at 2 µg/mL", "setting": "Vibrio percolans MB-1272; Comamonas terrigena, MB1272, 2 μg/ml, Penase 10^4 units/ml, read-out: Zone of inhibition, Antibiotic + Penase", "result": 0, "unit": "mm"},
      {"measurement": "zone of inhibition at 2 µg/mL", "setting": "Vibrio percolans MB-1272; Comamonas terrigena, MB1272, 2 μg/ml, read-out: Zone of inhibition, Antibiotic Alone", "result": 0, "unit": "mm"},
      {"measurement": "zone of inhibition at 4 µg/mL", "setting": "Vibrio percolans MB-1272; Comamonas terrigena, MB1272, 4 μg/ml, Penase 10^4 units/ml, read-out: Zone of inhibition, Antibiotic + Penase", "result": 0, "unit": "mm"},
      {"measurement": "zone of inhibition at 4 µg/mL", "setting": "Vibrio percolans MB-1272; Comamonas terrigena, MB1272, 4 μg/ml, read-out: Zone of inhibition, Antibiotic Alone", "result": 0, "unit": "mm"},
      {"measurement": "zone of inhibition at 8 µg/mL", "setting": "Vibrio percolans MB-1272; Comamonas terrigena, MB1272, 8 μg/ml, read-out: Zone of inhibition, Antibiotic Alone", "result": 0, "unit": "mm"},
      {"measurement": "zone of inhibition at 16 µg/mL", "setting": "Vibrio percolans MB-1272; Comamonas terrigena, MB1272, 16 μg/ml, Penase 10^4 units/ml, read-out: Zone of inhibition, Antibiotic + Penase", "result": 10, "unit": "mm"},
      {"measurement": "zone of inhibition at 16 µg/mL", "setting": "Vibrio percolans MB-1272; Comamonas terrigena, MB1272, 16 μg/ml, read-out: Zone of inhibition, Antibiotic Alone", "result": 8, "unit": "mm"},
      {"measurement": "zone of inhibition at 31 µg/mL", "setting": "Vibrio percolans MB-1272; Comamonas terrigena, MB1272, 31 μg/ml, Penase 10^4 units/ml, read-out: Zone of inhibition, Antibiotic + Penase", "result": 21, "unit": "mm"},
      {"measurement": "zone of inhibition at 31 µg/mL", "setting": "Vibrio percolans MB-1272; Comamonas terrigena, MB1272, 31 μg/ml, read-out: Zone of inhibition, Antibiotic Alone", "result": 20, "unit": "mm"},
      {"measurement": "Concentration required to produce a zone of inhibition in the presence of Pen G and Penase", "setting": "Vibrio percolans MB-1272; Pen G 5 μg/ml, Penase 10^4 units/ml", "result": 16, "unit": "µg/mL"},
      {"measurement": "Amount of clavulanic acid required relative to 6 BPA to produce a zone of inhibition", "setting": "Vibrio percolans MB-1272; in the presence of Pen G and Penase", "result": 64, "unit": "times"},
      {"measurement": "Potentiation of Pen G", "setting": "[1]; [2]", "result": 64, "unit": "fold"},
      {"measurement": "Potentiation of ampicillin", "setting": "[1]; [2]", "result": 32, "unit": "fold"},
      {"measurement": "1/4 of minimum zone-inducing concentration (1/4MZC)", "setting": "[1]; substance alone vs either MB3648 or MB3649", "result": 4, "unit": "µg/mL"}
    ]},
    {"smiles": "CC1(C)S[C@@H]2[C@H](NC(=O)[C@H](N)c3ccccc3)C(=O)N2[C@H]1C(=O)O", "note": "[Ampicillin]", "values": [
      {"measurement": "Inhibition Zone Diameter, plus Clavulanic Ac", "setting": "S. aureus MB-3649; [3]", "result": 20, "unit": "mm"},
      {"measurement": "Inhibition Zone Diameter, plus 6 BPA", "setting": "S. aureus MB-3649; [4]", "result": 19, "unit": "mm"},
      {"measurement": "Inhibition Zone Diameter, plus Clavulanic Ac", "setting": "S. aureus MB-3649; [5]", "result": 23, "unit": "mm"},
      {"measurement": "Inhibition Zone Diameter, plus 6 BPA", "setting": "S. aureus MB-3649; [6]", "result": 21, "unit": "mm"},
      {"measurement": "Inhibition Zone Diameter, plus Clavulanic Ac", "setting": "S. aureus MB-3649; [7]", "result": 24, "unit": "mm"},
      {"measurement": "Inhibition Zone Diameter, plus 6 BPA", "setting": "S. aureus MB-3649; [8]", "result": 23, "unit": "mm"},
      {"measurement": "Inhibition Zone Diameter, plus Clavulanic Ac", "setting": "S. aureus MB-3649; [9]", "result": 25, "unit": "mm"},
      {"measurement": "Inhibition Zone Diameter, plus 6 BPA", "setting": "S. aureus MB-3649; [10]", "result": 24, "unit": "mm"},
      {"measurement": "Inhibition Zone Diameter, plus Clavulanic Ac", "setting": "S. aureus MB-3649; [11]", "result": 24, "unit": "mm"},
      {"measurement": "Inhibition Zone Diameter, plus 6 BPA", "setting": "S. aureus MB-3649; [12]", "result": 29, "unit": "mm"},
      {"measurement": "zone of inhibition at 15.7 µg/mL", "setting": "S. aureus MB-3649; Staphylococcus aureus, MB3649, Ampicillin 15.7 μg/ml, read-out: Inhibition Zone Diameter, alone", "result": 0, "unit": "mm"},
      {"measurement": "zone of inhibition at 31.3 µg/mL", "setting": "S. aureus MB-3649; Staphylococcus aureus, MB3649, Ampicillin 31.3 μg/ml, read-out: Inhibition Zone Diameter, alone", "result": 0, "unit": "mm"},
      {"measurement": "zone of inhibition at 62.5 µg/mL", "setting": "S. aureus MB-3649; Staphylococcus aureus, MB3649, Ampicillin 62.5 μg/ml, read-out: Inhibition Zone Diameter, alone", "result": 0, "unit": "mm"},
      {"measurement": "zone of inhibition at 125 µg/mL", "setting": "S. aureus MB-3649; Staphylococcus aureus, MB3649, Ampicillin 125 μg/ml, read-out: Inhibition Zone Diameter, alone", "result": 17, "unit": "mm"},
      {"measurement": "zone of inhibition at 250 µg/mL", "setting": "S. aureus MB-3649; Staphylococcus aureus, MB3649, Ampicillin 250 μg/ml, read-out: Inhibition Zone Diameter, alone", "result": 18, "unit": "mm"},
      {"measurement": "zone of inhibition at 500 µg/mL", "setting": "S. aureus MB-3649; Staphylococcus aureus, MB3649, Ampicillin 500 μg/ml, read-out: Inhibition Zone Diameter, alone", "result": 20, "unit": "mm"},
      {"measurement": "zone of inhibition at 1000 µg/mL", "setting": "S. aureus MB-3649; Staphylococcus aureus, MB3649, Ampicillin 1000 μg/ml, read-out: Inhibition Zone Diameter, alone", "result": 25, "unit": "mm"},
      {"measurement": "Inhibition Zone Diameter, plus Clavulanic Ac", "setting": "S. aureus MB-3648; [3]", "result": 22, "unit": "mm"},
      {"measurement": "Inhibition Zone Diameter, plus 6 BPA", "setting": "S. aureus MB-3648; [4]", "result": 23, "unit": "mm"},
      {"measurement": "Inhibition Zone Diameter, plus Clavulanic Ac", "setting": "S. aureus MB-3648; [5]", "result": 23, "unit": "mm"},
      {"measurement": "Inhibition Zone Diameter, plus 6 BPA", "setting": "S. aureus MB-3648; [6]", "result": 23, "unit": "mm"},
      {"measurement": "Inhibition Zone Diameter, plus Clavulanic Ac", "setting": "S. aureus MB-3648; [7]", "result": 26, "unit": "mm"},
      {"measurement": "Inhibition Zone Diameter, plus 6 BPA", "setting": "S. aureus MB-3648; [8]", "result": 24, "unit": "mm"},
      {"measurement": "Inhibition Zone Diameter, plus Clavulanic Ac", "setting": "S. aureus MB-3648; [9]", "result": 27, "unit": "mm"},
      {"measurement": "Inhibition Zone Diameter, plus 6 BPA", "setting": "S. aureus MB-3648; [10]", "result": 25, "unit": "mm"},
      {"measurement": "Inhibition Zone Diameter, plus Clavulanic Ac", "setting": "S. aureus MB-3648; [11]", "result": 27, "unit": "mm"},
      {"measurement": "Inhibition Zone Diameter, plus 6 BPA", "setting": "S. aureus MB-3648; [12]", "result": 26, "unit": "mm"},
      {"measurement": "zone of inhibition at 15.7 µg/mL", "setting": "S. aureus MB-3648; Staphylococcus aureus, MB3648, Ampicillin 15.7 μg/ml, read-out: Inhibition Zone Diameter, alone", "result": 0, "unit": "mm"},
      {"measurement": "zone of inhibition at 31.3 µg/mL", "setting": "S. aureus MB-3648; Staphylococcus aureus, MB3648, Ampicillin 31.3 μg/ml, read-out: Inhibition Zone Diameter, alone", "result": 0, "unit": "mm"},
      {"measurement": "zone of inhibition at 62.5 µg/mL", "setting": "S. aureus MB-3648; Staphylococcus aureus, MB3648, Ampicillin 62.5 μg/ml, read-out: Inhibition Zone Diameter, alone", "result": 0, "unit": "mm"},
      {"measurement": "zone of inhibition at 125 µg/mL", "setting": "S. aureus MB-3648; Staphylococcus aureus, MB3648, Ampicillin 125 μg/ml, read-out: Inhibition Zone Diameter, alone", "result": 18, "unit": "mm"},
      {"measurement": "zone of inhibition at 250 µg/mL", "setting": "S. aureus MB-3648; Staphylococcus aureus, MB3648, Ampicillin 250 μg/ml, read-out: Inhibition Zone Diameter, alone", "result": 20, "unit": "mm"},
      {"measurement": "zone of inhibition at 500 µg/mL", "setting": "S. aureus MB-3648; Staphylococcus aureus, MB3648, Ampicillin 500 μg/ml, read-out: Inhibition Zone Diameter, alone", "result": 23, "unit": "mm"},
      {"measurement": "zone of inhibition at 1000 µg/mL", "setting": "S. aureus MB-3648; Staphylococcus aureus, MB3648, Ampicillin 1000 μg/ml, read-out: Inhibition Zone Diameter, alone", "result": 26, "unit": "mm"}
    ]},
    {"smiles": "CC1(C)S[C@@H]2[C@H](NC(=O)Cc3ccccc3)C(=O)N2[C@H]1C(=O)O", "note": "[Pen G]", "values": [
      {"measurement": "zone of inhibition at 5 µg/mL", "setting": "Vibrio percolans MB-1272; Comamonas terrigena, MB1272, Penase 10^4 units/ml, Pen G 5 μg/ml, no inhibitor, read-out: Zone of inhibition, Penase + Pen G Alone", "result": 0, "unit": "mm"}
    ]}
  ]
}
